{"source": "ChEMBL document CHEMBL1201862", "about": "“PubChem BioAssay data set” (2004)", "assay_in_all_cases": "NCI tumour cell line growth inhibition, 48 h", "key": {"SK-MEL-5": {"system": "SK-MEL-5"}, "MDA-N": {"system": "MDA-N"}, "NCI-H522": {"system": "NCI-H522"}, "OVCAR-8": {"system": "OVCAR-8"}, "NCI-H460": {"system": "NCI-H460"}, "SNB-75": {"system": "SNB-75"}, "PC-3": {"system": "PC-3"}, "COLO 205": {"system": "COLO 205"}, "CAKI-1": {"system": "CAKI-1"}, "HCT-15": {"system": "HCT-15"}, "786-0": {"system": "786-0"}, "SK-MEL-2": {"system": "SK-MEL-2"}, "MOLT-4": {"system": "MOLT-4"}, "HT-29": {"system": "HT-29"}, "SK-MEL-28": {"system": "SK-MEL-28"}, "M14": {"system": "M14"}, "MDA-MB-231": {"system": "MDA-MB-231"}, "SW-620": {"system": "SW-620"}, "UACC-62": {"system": "UACC-62"}}, "note": "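96-well plates; 48 h exposure; 5 concentrations. Endpoints by linear interpolation between flanking doses. Not reached: highest tested concentration assigned. GI50: concentration for 50% inhibition of growth.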 Active and inactive are the calls of the source. No stated cut-off is given here; in the data, active = GI50 up to about 1.1 µM and inactive = higher."}
{"smiles": "CC(C)S(=O)(=O)ON1C(=O)c2ccc(N(C)C)cc2C1=O", "values": [{"measurement": "GI50", "setting": "SK-MEL-5", "result": "3.96 µM (inactive)"}, {"measurement": "GI50", "setting": "MDA-N", "result": "4.01 µM (inactive)"}, {"measurement": "GI50", "setting": "NCI-H522", "result": "1.52 µM (inactive)"}, {"measurement": "GI50", "setting": "OVCAR-8", "result": "2.65 µM (inactive)"}, {"measurement": "GI50", "setting": "NCI-H460", "result": "19.9 µM (inactive)"}, {"measurement": "GI50", "setting": "SNB-75", "result": "19.6 µM (inactive)"}, {"measurement": "GI50", "setting": "PC-3", "result": "> 10 µM (inactive)"}, {"measurement": "GI50", "setting": "COLO 205", "result": "2.86 µM (inactive)"}, {"measurement": "GI50", "setting": "CAKI-1", "result": "5.35 µM (inactive)"}, {"measurement": "GI50", "setting": "HCT-15", "result": 13.6, "unit": "µM"}, {"measurement": "GI50", "setting": "786-0", "result": "4.66 µM (inactive)"}, {"measurement": "GI50", "setting": "SK-MEL-2", "result": "4.01 µM (inactive)"}, {"measurement": "GI50", "setting": "MOLT-4", "result": "2.12 µM (inactive)"}, {"measurement": "GI50", "setting": "HT-29", "result": "22.8 µM (inactive)"}, {"measurement": "GI50", "setting": "SK-MEL-28", "result": "21.4 µM (inactive)"}, {"measurement": "GI50", "setting": "M14", "result": "17.2 µM (inactive)"}, {"measurement": "GI50", "setting": "MDA-MB-231", "result": "6.17 µM (inactive)"}, {"measurement": "GI50", "setting": "SW-620", "result": "11.4 µM (inactive)"}, {"measurement": "GI50", "setting": "UACC-62", "result": "15.5 µM (inactive)"}]}
{"smiles": "C/C=C1\\CC2C(=O)CCC2C2c3ccccc3OC12", "note": "(configuration not stated)", "values": [{"measurement": "GI50", "setting": "SK-MEL-5", "result": "> 100 µM (inactive)"}, {"measurement": "GI50", "setting": "MDA-N", "result": "0.0718 µM (active)"}, {"measurement": "GI50", "setting": "NCI-H522", "result": "> 100 µM (inactive)"}, {"measurement": "GI50", "setting": "OVCAR-8", "result": "> 100 µM (inactive)"}, {"measurement": "GI50", "setting": "NCI-H460", "result": "> 100 µM (inactive)"}, {"measurement": "GI50", "setting": "SNB-75", "result": "> 100 µM (inactive)"}, {"measurement": "GI50", "setting": "PC-3", "result": "> 100 µM (inactive)"}, {"measurement": "GI50", "setting": "COLO 205", "result": "> 100 µM (inactive)"}, {"measurement": "GI50", "setting": "CAKI-1", "result": "> 100 µM (inactive)"}, {"measurement": "GI50", "setting": "HCT-15", "result": "> 100", "unit": "µM"}, {"measurement": "GI50", "setting": "786-0", "result": "> 100 µM (inactive)"}, {"measurement": "GI50", "setting": "SK-MEL-2", "result": "> 100 µM (inactive)"}, {"measurement": "GI50", "setting": "MOLT-4", "result": "> 100 µM (inactive)"}, {"measurement": "GI50", "setting": "HT-29", "result": "> 100 µM (inactive)"}, {"measurement": "GI50", "setting": "SK-MEL-28", "result": "> 100 µM (inactive)"}, {"measurement": "GI50", "setting": "M14", "result": "> 100 µM (inactive)"}, {"measurement": "GI50", "setting": "MDA-MB-231", "result": "> 100 µM (inactive)"}, {"measurement": "GI50", "setting": "SW-620", "result": "> 100 µM (inactive)"}, {"measurement": "GI50", "setting": "UACC-62", "result": "> 100 µM (inactive)"}]}
{"smiles": "CCCCCC(=O)OC[n+]1ccc2c(C)c3[nH]c4ccc(OC)cc4c3c(C)c2c1", "values": [{"measurement": "GI50", "setting": "SK-MEL-5", "result": "1.57 µM (inactive)"}, {"measurement": "GI50", "setting": "MDA-N", "result": "0.332 µM (active)"}, {"measurement": "GI50", "setting": "NCI-H522", "result": "0.566 µM (active)"}, {"measurement": "GI50", "setting": "OVCAR-8", "result": "0.112 µM (active)"}, {"measurement": "GI50", "setting": "NCI-H460", "result": "0.0325 µM (active)"}, {"measurement": "GI50", "setting": "SNB-75", "result": "1.11 µM (active)"}, {"measurement": "GI50", "setting": "PC-3", "result": "0.193 µM (active)"}, {"measurement": "GI50", "setting": "COLO 205", "result": "0.251 µM (active)"}, {"measurement": "GI50", "setting": "CAKI-1", "result": "1.06 µM (active)"}, {"measurement": "GI50", "setting": "HCT-15", "result": 0.169, "unit": "µM"}, {"measurement": "GI50", "setting": "786-0", "result": "0.0843 µM (active)"}, {"measurement": "GI50", "setting": "SK-MEL-2", "result": "1.61 µM (inactive)"}, {"measurement": "GI50", "setting": "MOLT-4", "result": "0.0419 µM (active)"}, {"measurement": "GI50", "setting": "HT-29", "result": "0.0897 µM (active)"}, {"measurement": "GI50", "setting": "SK-MEL-28", "result": "0.766 µM (active)"}, {"measurement": "GI50", "setting": "M14", "result": "0.622 µM (active)"}, {"measurement": "GI50", "setting": "MDA-MB-231", "result": "0.244 µM (active)"}, {"measurement": "GI50", "setting": "SW-620", "result": "0.0735 µM (active)"}, {"measurement": "GI50", "setting": "UACC-62", "result": "0.966 µM (active)"}]}
{"smiles": "CN(CCCNCc1ccccn1)Cc1ccccc1O", "values": [{"measurement": "GI50", "setting": "SK-MEL-5", "result": "21 µM (inactive)"}, {"measurement": "GI50", "setting": "MDA-N", "result": "58.2 µM (inactive)"}, {"measurement": "GI50", "setting": "NCI-H522", "result": "56.2 µM (inactive)"}, {"measurement": "GI50", "setting": "OVCAR-8", "result": "26.8 µM (inactive)"}, {"measurement": "GI50", "setting": "NCI-H460", "result": "7.19 µM (inactive)"}, {"measurement": "GI50", "setting": "SNB-75", "result": "> 100 µM (inactive)"}, {"measurement": "GI50", "setting": "PC-3", "result": "65.3 µM (inactive)"}, {"measurement": "GI50", "setting": "COLO 205", "result": "29 µM (inactive)"}, {"measurement": "GI50", "setting": "CAKI-1", "result": "42.8 µM (inactive)"}, {"measurement": "GI50", "setting": "HCT-15", "result": 6.4, "unit": "µM"}, {"measurement": "GI50", "setting": "786-0", "result": "52.7 µM (inactive)"}, {"measurement": "GI50", "setting": "SK-MEL-2", "result": "35.2 µM (inactive)"}, {"measurement": "GI50", "setting": "MOLT-4", "result": "13.7 µM (inactive)"}, {"measurement": "GI50", "setting": "HT-29", "result": "22 µM (inactive)"}, {"measurement": "GI50", "setting": "SK-MEL-28", "result": "> 100 µM (inactive)"}, {"measurement": "GI50", "setting": "MDA-MB-231", "result": "> 100 µM (inactive)"}, {"measurement": "GI50", "setting": "SW-620", "result": "> 100 µM (inactive)"}, {"measurement": "GI50", "setting": "UACC-62", "result": "18.7 µM (inactive)"}]}
{"smiles": "O=c1[nH]n(Cc2ccccn2)c2ccc([N+](=O)[O-])cc12", "values": [{"measurement": "GI50", "setting": "SK-MEL-5", "result": "> 100 µM (inactive)"}, {"measurement": "GI50", "setting": "MDA-N", "result": "> 100 µM (inactive)"}, {"measurement": "GI50", "setting": "NCI-H522", "result": "> 100 µM (inactive)"}, {"measurement": "GI50", "setting": "OVCAR-8", "result": "> 100 µM (inactive)"}, {"measurement": "GI50", "setting": "NCI-H460", "result": "> 100 µM (inactive)"}, {"measurement": "GI50", "setting": "SNB-75", "result": "> 100 µM (inactive)"}, {"measurement": "GI50", "setting": "PC-3", "result": "> 100 µM (inactive)"}, {"measurement": "GI50", "setting": "COLO 205", "result": "> 100 µM (inactive)"}, {"measurement": "GI50", "setting": "CAKI-1", "result": "> 100 µM (inactive)"}, {"measurement": "GI50", "setting": "HCT-15", "result": "> 100", "unit": "µM"}, {"measurement": "GI50", "setting": "786-0", "result": "> 100 µM (inactive)"}, {"measurement": "GI50", "setting": "SK-MEL-2", "result": "> 100 µM (inactive)"}, {"measurement": "GI50", "setting": "MOLT-4", "result": "> 100 µM (inactive)"}, {"measurement": "GI50", "setting": "HT-29", "result": "> 100 µM (inactive)"}, {"measurement": "GI50", "setting": "SK-MEL-28", "result": "> 100 µM (inactive)"}, {"measurement": "GI50", "setting": "M14", "result": "> 100 µM (inactive)"}, {"measurement": "GI50", "setting": "MDA-MB-231", "result": "> 100 µM (inactive)"}, {"measurement": "GI50", "setting": "SW-620", "result": "> 100 µM (inactive)"}, {"measurement": "GI50", "setting": "UACC-62", "result": "> 100 µM (inactive)"}]}
{"smiles": "Cc1ccc(S(=O)(=O)NC(=O)NCCc2c[nH]cn2)cc1", "values": [{"measurement": "GI50", "setting": "SK-MEL-5", "result": "> 100 µM (inactive)"}, {"measurement": "GI50", "setting": "NCI-H522", "result": "> 100 µM (inactive)"}, {"measurement": "GI50", "setting": "OVCAR-8", "result": "> 100 µM (inactive)"}, {"measurement": "GI50", "setting": "NCI-H460", "result": "> 100 µM (inactive)"}, {"measurement": "GI50", "setting": "SNB-75", "result": "> 100 µM (inactive)"}, {"measurement": "GI50", "setting": "PC-3", "result": "> 100 µM (inactive)"}, {"measurement": "GI50", "setting": "COLO 205", "result": "> 100 µM (inactive)"}, {"measurement": "GI50", "setting": "CAKI-1", "result": "> 100 µM (inactive)"}, {"measurement": "GI50", "setting": "HCT-15", "result": "> 100", "unit": "µM"}, {"measurement": "GI50", "setting": "786-0", "result": "> 100 µM (inactive)"}, {"measurement": "GI50", "setting": "SK-MEL-2", "result": "> 100 µM (inactive)"}, {"measurement": "GI50", "setting": "MOLT-4", "result": "> 100 µM (inactive)"}, {"measurement": "GI50", "setting": "HT-29", "result": "> 100 µM (inactive)"}, {"measurement": "GI50", "setting": "SK-MEL-28", "result": "> 100 µM (inactive)"}, {"measurement": "GI50", "setting": "M14", "result": "> 100 µM (inactive)"}, {"measurement": "GI50", "setting": "MDA-MB-231", "result": "> 100 µM (inactive)"}, {"measurement": "GI50", "setting": "SW-620", "result": "> 100 µM (inactive)"}, {"measurement": "GI50", "setting": "UACC-62", "result": "> 100 µM (inactive)"}]}
